Consider 16 compounds from ChEMBL document CHEMBL5223149, “The Emerging Landscape of Small-Molecule Therapeutics for the Treatment of Huntington's Disease” (J Med Chem, 2022).

The nature of data set [1]: Solubility of the compound. Type of data set: physicochemical.
The nature of data set [2]: in vivo. Particulars: mouse, po.
In data set [3] the target is T1, NAD-dependent protein deacetylase sirtuin-2 (Homo sapiens, UniProt Q8IXJ6).
T1 sequence (Q8IXJ6 whole entry): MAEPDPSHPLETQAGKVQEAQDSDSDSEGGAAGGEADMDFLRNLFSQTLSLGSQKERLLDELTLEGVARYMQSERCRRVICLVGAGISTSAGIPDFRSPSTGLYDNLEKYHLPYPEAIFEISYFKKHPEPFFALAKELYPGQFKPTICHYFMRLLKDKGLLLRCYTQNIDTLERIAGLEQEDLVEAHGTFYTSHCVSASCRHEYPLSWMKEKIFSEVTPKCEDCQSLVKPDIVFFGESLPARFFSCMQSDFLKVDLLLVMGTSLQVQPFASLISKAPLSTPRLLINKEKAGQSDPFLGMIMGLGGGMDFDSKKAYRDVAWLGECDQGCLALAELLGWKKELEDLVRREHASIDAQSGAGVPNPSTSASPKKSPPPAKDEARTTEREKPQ
Nature of the data set: Inhibition of human recombinant SIRT2 using alpha-tubulin as substrate by coupled enzymatic analysis.

A short description of data set [4]: Toxicity in Drosophila infected with huntington disease assessed as survival rate at 1 to 30 uM relative to control. The conditions noted are these: dose 1-30 µM, read-out: Activity.
For data set [5], the system named is Huntingtin (Homo sapiens), P42858 [UNDEFINED MUTATION]. The data set can be described thus: Inhibition of mutant HTT (unknown origin) at 100 nM relative to control.
Sequence of Huntingtin (Homo sapiens), P42858 [UNDEFINED MUTATION] (P42858 whole entry, looked up, change not shown): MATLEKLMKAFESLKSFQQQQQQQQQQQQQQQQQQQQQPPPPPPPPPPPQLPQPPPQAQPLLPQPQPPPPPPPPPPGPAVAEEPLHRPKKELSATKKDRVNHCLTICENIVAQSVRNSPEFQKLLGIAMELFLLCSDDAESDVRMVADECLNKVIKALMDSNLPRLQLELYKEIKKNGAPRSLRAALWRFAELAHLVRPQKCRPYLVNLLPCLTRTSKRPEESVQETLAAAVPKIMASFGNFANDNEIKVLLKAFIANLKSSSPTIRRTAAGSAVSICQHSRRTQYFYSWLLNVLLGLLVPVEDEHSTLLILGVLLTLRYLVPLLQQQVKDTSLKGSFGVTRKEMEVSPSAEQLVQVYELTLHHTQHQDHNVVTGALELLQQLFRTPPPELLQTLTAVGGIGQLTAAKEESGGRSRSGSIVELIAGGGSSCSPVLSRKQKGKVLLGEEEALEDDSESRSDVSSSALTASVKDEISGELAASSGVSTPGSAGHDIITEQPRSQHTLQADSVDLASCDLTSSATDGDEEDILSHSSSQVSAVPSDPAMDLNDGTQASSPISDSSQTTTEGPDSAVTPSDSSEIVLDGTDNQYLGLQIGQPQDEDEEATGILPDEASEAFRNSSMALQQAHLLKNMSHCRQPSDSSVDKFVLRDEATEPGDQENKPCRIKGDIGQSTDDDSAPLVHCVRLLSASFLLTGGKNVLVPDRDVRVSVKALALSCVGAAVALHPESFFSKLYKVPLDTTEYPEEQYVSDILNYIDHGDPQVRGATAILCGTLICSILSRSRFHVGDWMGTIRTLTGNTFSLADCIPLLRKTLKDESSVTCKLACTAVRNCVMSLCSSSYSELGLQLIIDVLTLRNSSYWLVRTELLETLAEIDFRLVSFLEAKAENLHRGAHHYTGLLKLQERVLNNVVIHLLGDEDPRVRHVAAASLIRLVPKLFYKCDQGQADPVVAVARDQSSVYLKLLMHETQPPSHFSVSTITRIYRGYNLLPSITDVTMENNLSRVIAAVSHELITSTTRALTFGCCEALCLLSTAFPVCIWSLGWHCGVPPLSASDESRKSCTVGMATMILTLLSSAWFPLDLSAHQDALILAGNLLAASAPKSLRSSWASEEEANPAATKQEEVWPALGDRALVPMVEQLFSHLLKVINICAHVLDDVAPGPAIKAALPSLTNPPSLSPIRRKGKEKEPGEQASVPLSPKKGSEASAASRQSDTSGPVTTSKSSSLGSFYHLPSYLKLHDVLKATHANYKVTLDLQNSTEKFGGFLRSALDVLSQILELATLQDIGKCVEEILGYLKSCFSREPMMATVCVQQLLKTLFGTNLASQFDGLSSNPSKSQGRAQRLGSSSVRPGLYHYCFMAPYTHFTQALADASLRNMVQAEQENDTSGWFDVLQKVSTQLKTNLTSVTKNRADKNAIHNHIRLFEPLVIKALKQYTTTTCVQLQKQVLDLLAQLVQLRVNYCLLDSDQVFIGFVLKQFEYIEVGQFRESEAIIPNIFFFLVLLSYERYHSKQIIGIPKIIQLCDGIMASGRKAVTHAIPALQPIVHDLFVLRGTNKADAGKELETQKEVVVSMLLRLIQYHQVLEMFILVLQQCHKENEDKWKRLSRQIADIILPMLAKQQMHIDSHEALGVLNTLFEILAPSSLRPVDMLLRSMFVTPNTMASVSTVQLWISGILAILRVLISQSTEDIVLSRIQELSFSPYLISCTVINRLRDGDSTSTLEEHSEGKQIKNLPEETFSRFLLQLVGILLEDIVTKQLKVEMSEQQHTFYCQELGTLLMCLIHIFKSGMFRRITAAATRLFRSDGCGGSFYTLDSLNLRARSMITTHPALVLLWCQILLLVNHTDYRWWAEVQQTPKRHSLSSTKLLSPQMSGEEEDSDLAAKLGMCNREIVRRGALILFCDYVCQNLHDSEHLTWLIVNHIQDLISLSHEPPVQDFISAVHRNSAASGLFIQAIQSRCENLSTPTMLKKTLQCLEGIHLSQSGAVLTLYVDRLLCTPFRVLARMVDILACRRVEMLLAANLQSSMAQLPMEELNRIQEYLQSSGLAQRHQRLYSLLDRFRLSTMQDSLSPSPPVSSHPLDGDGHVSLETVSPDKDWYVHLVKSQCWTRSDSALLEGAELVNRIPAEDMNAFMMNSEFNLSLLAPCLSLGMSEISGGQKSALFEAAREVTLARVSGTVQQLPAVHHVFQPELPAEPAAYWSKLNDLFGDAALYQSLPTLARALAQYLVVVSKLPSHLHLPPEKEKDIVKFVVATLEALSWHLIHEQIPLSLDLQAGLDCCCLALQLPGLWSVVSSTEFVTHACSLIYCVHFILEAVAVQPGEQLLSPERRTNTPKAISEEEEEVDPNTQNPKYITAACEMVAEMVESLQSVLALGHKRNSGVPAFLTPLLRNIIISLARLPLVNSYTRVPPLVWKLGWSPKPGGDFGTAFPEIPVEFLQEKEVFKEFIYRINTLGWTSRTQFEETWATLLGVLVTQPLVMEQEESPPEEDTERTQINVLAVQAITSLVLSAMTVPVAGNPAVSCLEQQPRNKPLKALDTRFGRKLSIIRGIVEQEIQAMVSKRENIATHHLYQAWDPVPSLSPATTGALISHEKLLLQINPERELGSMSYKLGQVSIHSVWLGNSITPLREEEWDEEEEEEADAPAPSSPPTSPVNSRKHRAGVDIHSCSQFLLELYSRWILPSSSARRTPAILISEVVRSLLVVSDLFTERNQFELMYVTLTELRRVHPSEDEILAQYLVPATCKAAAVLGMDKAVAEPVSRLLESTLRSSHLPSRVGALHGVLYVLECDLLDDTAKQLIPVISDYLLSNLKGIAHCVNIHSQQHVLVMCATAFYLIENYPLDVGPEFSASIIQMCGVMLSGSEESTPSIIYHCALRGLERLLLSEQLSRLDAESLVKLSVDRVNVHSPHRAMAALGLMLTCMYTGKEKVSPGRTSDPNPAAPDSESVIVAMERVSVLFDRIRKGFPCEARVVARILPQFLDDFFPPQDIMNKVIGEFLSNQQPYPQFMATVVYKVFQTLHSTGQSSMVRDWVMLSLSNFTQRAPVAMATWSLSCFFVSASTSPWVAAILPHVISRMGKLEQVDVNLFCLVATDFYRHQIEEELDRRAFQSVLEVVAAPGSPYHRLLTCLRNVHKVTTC
For data set [6], the target named is Huntingtin (Homo sapiens, UniProt P42858). Nature of the data set: Binding affinity to mutant HTT (unknown origin) mediated HD exon 1-72Q aggregation assessed as dissociation constant.
Sequence of Huntingtin (P42858 whole entry, looked up, change not shown): as above
Data set [7] concerns the target Microtubule-associated protein 1 light chain 3 beta (Homo sapiens, UniProt Q9GZQ8). The data set can be described thus: Binding affinity to LC3B (unknown origin) assessed as dissociation constant.
Data set [8] deals with Kynurenine 3-monooxygenase (Homo sapiens, UniProt O15229). Nature of the data set: Inhibition of KMO (unknown origin).
Sequence of Kynurenine 3-monooxygenase (O15229 whole entry): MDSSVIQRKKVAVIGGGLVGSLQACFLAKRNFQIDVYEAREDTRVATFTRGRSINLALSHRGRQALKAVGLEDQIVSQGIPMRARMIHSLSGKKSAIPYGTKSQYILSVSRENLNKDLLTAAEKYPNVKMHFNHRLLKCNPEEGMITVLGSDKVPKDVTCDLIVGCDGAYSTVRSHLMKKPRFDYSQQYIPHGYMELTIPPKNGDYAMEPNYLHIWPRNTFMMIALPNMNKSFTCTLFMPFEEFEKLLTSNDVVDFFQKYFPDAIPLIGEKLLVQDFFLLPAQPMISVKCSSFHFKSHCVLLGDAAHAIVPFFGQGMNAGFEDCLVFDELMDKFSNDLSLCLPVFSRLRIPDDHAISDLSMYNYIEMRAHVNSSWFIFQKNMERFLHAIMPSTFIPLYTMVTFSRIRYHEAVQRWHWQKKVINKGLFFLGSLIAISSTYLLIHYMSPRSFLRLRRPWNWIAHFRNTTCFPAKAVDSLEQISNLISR
For data set [9], the target named is NAD(P)H dehydrogenase [quinone] 1 (Homo sapiens) (UniProt P15559). Nature of the data set: Inhibition of NQO1 (unknown origin).
Sequence of NAD(P)H dehydrogenase [quinone] 1 (Homo sapiens) (P15559 whole entry, the tested form may be a part): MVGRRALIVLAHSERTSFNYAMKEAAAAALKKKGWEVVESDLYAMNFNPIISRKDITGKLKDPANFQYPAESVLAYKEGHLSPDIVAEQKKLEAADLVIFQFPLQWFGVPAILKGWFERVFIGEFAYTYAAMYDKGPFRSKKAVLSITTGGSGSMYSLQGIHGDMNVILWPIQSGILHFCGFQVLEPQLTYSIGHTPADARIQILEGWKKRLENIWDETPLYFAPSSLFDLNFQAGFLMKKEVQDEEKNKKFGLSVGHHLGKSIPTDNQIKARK
Data set [10] deals with Transitional endoplasmic reticulum ATPase (Homo sapiens, UniProt P55072). Nature of the data set: Inhibition of human wild type VCP (1 to 806 residues) expressed in Escherichia coli BL21 (DE3) incubated for 1 hr in presence of ATP by malachite green staining based analysis.
In data set [11] the target is T2, Protein-glutamine gamma-glutamyltransferase (Homo sapiens, UniProt P21980).
T2 sequence (P21980 whole entry): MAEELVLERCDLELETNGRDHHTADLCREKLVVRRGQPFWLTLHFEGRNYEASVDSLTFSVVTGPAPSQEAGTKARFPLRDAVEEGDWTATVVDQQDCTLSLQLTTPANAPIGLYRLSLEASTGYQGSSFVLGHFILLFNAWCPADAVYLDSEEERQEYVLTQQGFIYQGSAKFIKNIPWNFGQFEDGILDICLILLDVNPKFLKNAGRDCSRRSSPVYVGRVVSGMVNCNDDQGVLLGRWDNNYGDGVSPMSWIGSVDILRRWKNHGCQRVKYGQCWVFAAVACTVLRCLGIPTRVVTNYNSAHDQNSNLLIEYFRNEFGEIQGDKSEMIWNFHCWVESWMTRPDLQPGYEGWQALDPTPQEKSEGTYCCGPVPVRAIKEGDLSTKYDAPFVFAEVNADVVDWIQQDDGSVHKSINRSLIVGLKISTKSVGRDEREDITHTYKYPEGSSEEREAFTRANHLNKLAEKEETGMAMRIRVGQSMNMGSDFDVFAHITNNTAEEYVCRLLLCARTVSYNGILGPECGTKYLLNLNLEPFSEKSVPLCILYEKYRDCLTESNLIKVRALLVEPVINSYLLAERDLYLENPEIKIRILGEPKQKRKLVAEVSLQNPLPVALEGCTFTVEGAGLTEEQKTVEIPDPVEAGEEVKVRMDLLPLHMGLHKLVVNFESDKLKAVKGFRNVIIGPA
The data set can be described thus: Inhibition of TG2 (unknown origin).

For data set [12], the target named is Histone deacetylase 4 (Homo sapiens, UniProt P56524). Nature of the data set: Inhibition of HDAC4 (unknown origin).
Sequence of Histone deacetylase 4 (P56524 whole entry): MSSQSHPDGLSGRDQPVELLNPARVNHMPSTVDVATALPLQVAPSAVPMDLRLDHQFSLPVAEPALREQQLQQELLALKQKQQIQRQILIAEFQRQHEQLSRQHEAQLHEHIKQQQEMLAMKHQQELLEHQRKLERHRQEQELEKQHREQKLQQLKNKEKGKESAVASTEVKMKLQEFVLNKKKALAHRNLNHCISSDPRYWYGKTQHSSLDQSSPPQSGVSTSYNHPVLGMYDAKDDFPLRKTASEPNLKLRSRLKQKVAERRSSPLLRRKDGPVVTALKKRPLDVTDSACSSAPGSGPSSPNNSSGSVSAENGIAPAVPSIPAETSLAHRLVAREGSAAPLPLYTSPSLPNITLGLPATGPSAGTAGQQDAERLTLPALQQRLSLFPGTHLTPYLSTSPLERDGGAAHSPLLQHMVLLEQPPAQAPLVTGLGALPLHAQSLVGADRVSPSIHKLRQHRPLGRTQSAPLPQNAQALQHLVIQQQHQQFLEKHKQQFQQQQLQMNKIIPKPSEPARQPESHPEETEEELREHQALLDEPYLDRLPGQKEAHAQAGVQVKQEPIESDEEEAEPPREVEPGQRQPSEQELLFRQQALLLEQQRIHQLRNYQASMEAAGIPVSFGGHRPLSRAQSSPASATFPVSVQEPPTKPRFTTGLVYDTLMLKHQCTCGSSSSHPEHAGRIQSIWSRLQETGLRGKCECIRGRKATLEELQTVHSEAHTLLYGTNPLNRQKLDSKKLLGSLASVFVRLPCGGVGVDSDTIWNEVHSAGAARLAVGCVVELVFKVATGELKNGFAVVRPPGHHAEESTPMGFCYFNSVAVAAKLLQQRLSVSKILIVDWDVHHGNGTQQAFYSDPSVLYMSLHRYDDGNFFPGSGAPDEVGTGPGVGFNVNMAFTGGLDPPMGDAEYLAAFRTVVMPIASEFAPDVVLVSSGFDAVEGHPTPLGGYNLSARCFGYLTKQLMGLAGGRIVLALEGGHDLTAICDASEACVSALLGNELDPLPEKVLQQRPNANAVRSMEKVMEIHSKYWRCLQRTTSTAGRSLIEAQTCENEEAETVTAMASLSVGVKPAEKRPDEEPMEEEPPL
A short description of data set [13]: Inhibition of PDI (unknown origin). On the set-up: species or system Homo sapiens.
Data set [14] in a line: Binding affinity to PDI (unknown origin). On the set-up: species or system Homo sapiens.
Data set [15] is filed under the species Homo sapiens. The data set can be described thus: Activation of TrkB Y816 mutant (unknown origin) at 1 mM relative to control. The conditions noted are these: filed as activator.
Data set [16] concerns the target T3, 1-phosphatidylinositol 4,5-bisphosphate phosphodiesterase gamma-1 (Homo sapiens) (UniProt P19174).
T3 sequence (whole entry): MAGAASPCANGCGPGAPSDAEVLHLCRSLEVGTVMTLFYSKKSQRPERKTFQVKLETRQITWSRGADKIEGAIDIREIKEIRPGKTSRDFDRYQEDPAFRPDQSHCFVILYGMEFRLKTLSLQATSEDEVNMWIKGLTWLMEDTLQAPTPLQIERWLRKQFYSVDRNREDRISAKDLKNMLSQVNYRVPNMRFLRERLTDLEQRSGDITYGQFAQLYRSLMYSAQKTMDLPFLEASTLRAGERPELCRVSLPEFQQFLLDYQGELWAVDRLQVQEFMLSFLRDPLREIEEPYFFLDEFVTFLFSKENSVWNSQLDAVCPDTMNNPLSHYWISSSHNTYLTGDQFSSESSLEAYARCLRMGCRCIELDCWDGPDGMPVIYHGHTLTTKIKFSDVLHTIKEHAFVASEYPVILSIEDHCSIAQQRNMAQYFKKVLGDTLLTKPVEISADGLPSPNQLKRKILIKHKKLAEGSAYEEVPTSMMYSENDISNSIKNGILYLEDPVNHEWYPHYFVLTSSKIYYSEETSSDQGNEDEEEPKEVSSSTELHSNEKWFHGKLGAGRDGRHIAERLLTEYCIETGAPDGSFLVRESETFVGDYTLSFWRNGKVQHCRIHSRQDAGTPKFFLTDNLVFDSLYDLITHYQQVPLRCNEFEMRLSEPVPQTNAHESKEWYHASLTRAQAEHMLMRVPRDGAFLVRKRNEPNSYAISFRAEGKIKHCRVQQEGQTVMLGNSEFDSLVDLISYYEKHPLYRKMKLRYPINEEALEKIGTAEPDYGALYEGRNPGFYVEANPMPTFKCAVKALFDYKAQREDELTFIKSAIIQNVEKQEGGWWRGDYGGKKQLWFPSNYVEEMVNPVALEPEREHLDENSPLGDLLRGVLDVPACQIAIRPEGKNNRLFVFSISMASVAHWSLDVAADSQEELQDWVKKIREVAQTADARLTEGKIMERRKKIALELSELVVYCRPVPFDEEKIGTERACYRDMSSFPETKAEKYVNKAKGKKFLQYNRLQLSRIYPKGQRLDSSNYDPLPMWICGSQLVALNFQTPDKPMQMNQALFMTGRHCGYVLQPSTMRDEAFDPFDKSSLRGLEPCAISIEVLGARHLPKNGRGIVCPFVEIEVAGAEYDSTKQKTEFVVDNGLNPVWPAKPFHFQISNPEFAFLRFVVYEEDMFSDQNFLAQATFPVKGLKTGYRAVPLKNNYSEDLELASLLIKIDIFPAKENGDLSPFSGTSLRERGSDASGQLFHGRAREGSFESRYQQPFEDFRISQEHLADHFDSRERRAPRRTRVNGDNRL
The data set can be described thus: Activation of PLCgamma1 (unknown origin) at 1 mM relative to control. The conditions noted are these: filed as activator.

In data set [17] the target is G-protein coupled receptor 52 (Homo sapiens, UniProt Q9Y2T5). Nature of the data set: Inhibition of GPR52 (unknown origin).
Data set [18] deals with Kelch-like ECH-associated protein 1 (Homo sapiens, UniProt Q14145). The data set can be described thus: Inhibition of KEAP1 (unknown origin).
The target in data set [19] is BDNF/NT-3 growth factors receptor (Homo sapiens) (UniProt Q16620). The data set can be described thus: Activation of TrkB (unknown origin) relative to control. The conditions noted are these: filed as activator.
For data set [20], the species on record is Homo sapiens. The data set can be described thus: Activation of MAPK (unknown origin) relative to control. The conditions noted are these: filed as activator.

Molecules are shown by their SMILES. Values after ≈ are worked out from the molar mass of the structure shown.

Turning to `O=c1cc(N2CCOCC2)cc(N2CCCCC[C@@H]2Cc2ccccc2)[nH]1`, in [1], the solubility (commonly the concentration that dissolves in the medium under given conditions) came out at 58 µg/mL (≈ 158 µM). Further, the bioavailability – broadly, the share of a dose that reaches the circulation, judged against a reference dose that is usually intravenous – in data set [2] came out at 68%.

Consider `O=[N+]([O-])c1ccc(Sc2nnc(COc3ccccc3)n2-c2ccccc2)c2ncccc12`, for which, in data set [3], the IC50 (commonly the concentration needed to halve the response being measured) amounted to 1200 nM. Also, the survival in data set [4] was 20.7%.

As to `O=C1Nc2ccc(I)cc2/C1=C/c1cc(Br)c(O)c(Br)c1`, in [5], the inhibition – broadly, the relative decrease from the control value, in per cent – worked out at 25%. Besides, the Kd in data set [6] and in data set [7] was 100 nM throughout.

In data set [5], `Cc1ccc(C(=O)N(CCCN)[C@@H](C2=Nc3cc(I)ccc3CN2Cc2ccccc2)C(C)C)cc1` came in with an inhibition of 40%. The Kd in data set [6] and in data set [7] was 100 nM each time.

Compound `O=C(O)c1cc(-c2ccc(OC3CC3)c(Cl)c2)ncn1` gave a half-maximal inhibitory concentration (IC50) in data set [8] of 500 nM.

As for `O=[N+]([O-])c1ccc(Sc2nnc(COc3ccccc3)n2-c2ccccc2)nc1`, in data set [9], the CD was found to be 0.15 µM.

Regarding `Cc1cc2c(C(C)C)c(O)c(O)c(C=O)c2c(O)c1-c1c(C)cc2c(C(C)C)c(O)c(O)c(C=O)c2c1O`, the half-maximal inhibitory concentration (IC50) in data set [10] came to 6530 nM.

In data set [11], `C=CC(=O)NCCCCC(NC(=O)OCc1ccccc1)C(=O)N1CCN(c2ccccc2Cl)CC1` (stereo not given) came in with a concentration for half-maximal inhibition (IC50) of 62 nM.

In the case of `C[C@H]1CCCN1[C@@H](C)NC(=O)c1ccc(-c2noc(C(F)(F)F)n2)cc1`, it took 40 nM to reach half-maximal inhibition in data set [12] (IC50).

As to `O=C(C1CC1)N1CCN(Cn2sc3ccccc3c2=O)CC1`, the concentration giving a half-maximal response (EC50) (usually the concentration needed to bring the measured effect to its halfway point) in data set [13] stood at 500 nM. Further, the Kd – broadly, the free concentration of one partner at which half of the binding sites on the other are occupied at equilibrium, for simple one-to-one binding – in data set [14] was found to be 62 nM.

In turn, `O=C(NO)C(c1cccc(-c2ccc(C(F)(F)F)cc2)c1)c1ccccc1F` (stereo not given) had an IC50 in [12] of 54 nM.

Regarding `O=c1cc(-c2ccccc2)oc2c(O)c(O)ccc12`, the Activity in data set [15] came to 90%; in data set [16] it was 400%.

Turning to `C=C1C(=O)O[C@@H]2C/C=C(\C)CC3C=C(C[C@H](OC(=O)/C(C)=C\C)[C@@H]12)C(=O)O3` (stereo not given in full), in data set [17], the midpoint of inhibition, the IC50, lay at 12000 nM.

As to `O=C(O)c1cc(-c2ccc(Cl)c(Cl)c2)ncn1`, half-maximal inhibition in data set [8] (IC50) required 600 nM.

In data set [18], `O=C(O)[C@H]1CCC[C@H]1C(=O)N1CCc2c(O)cccc2[C@H]1CN1C(=O)c2ccccc2C1=O` displayed an IC50 of 98 nM.

`CN(C)c1ccc(-c2cc(=O)c3ccc(O)c(O)c3o2)cc1`: the Activity in data set [19] and in data set [20] was 125% in each case.
